Laboratory results as given in ChEMBL document CHEMBL1629455, “Discovery of a novel class of biphenyl pyrazole sodium channel blockers for treatment of neuropathic pain” (Bioorg Med Chem Lett, 2010).

These compounds were tested on Rattus norvegicus (assay: Antiallodynic activity in rat spinal nerve ligation model of neuropathic pain assessed as reversal of allodynia at 10 mg/kg, po after 4 hrs). Settings: not given.
Assay type: functional

Row | SMILES | Activity [%]
1 | NC(=O)c1cc(C(N)=O)n(-c2cccc(-c3cccc(OC(F)(F)F)c3OCC(F)(F)C(F)(F)F)c2)n1 | 3
2 | NC(=O)c1cc(C(N)=O)n(-c2cccc(-c3c(F)cccc3OC(F)(F)F)c2)n1 | 9
3 | NC(=O)c1cc(C(N)=O)n(-c2cccc(-c3cc(F)ccc3OCC(F)(F)C(F)(F)F)c2)n1 | 9
4 | NC(=O)c1cn(-c2cccc(-c3ccccc3OC(F)(F)F)c2)nc1C(N)=O | 8
5 | NC(=O)c1cc(C(N)=O)n(-c2cccc(-c3cc(C(F)(F)F)ccc3OC(F)(F)F)c2)n1 | 6
6 | NC(=O)c1cc(C(N)=O)n(-c2cccc(-c3cccc(OC(F)(F)F)c3F)c2)n1 | 8
7 | NC(=O)c1cc(C(N)=O)n(-c2cccc(-c3ccccc3OC(F)(F)F)c2)n1 | 19
8 | NC(=O)c1cc(C(N)=O)n(-c2cccc(-c3cccc(C(F)(F)F)c3OCC(F)(F)C(F)(F)F)c2)n1 | 8
9 | NC(=O)c1cc(C(N)=O)n(-c2cccc(-c3ccc(F)cc3OCC(F)(F)C(F)(F)F)c2)n1 | 8
10 | Cc1cc(C(N)=O)nn1-c1cccc(-c2ccccc2OC(F)(F)F)c1 | 11
11 | NC(=O)c1cc(C(N)=O)n(-c2cccc(-c3ccccc3C(F)(F)F)c2)n1 | 2
12 | NC(=O)c1cc(C(N)=O)n(-c2cccc(-c3cccc(Cl)c3Cl)c2)n1 | 7
13 | Cc1c(C(N)=O)c(C(N)=O)nn1-c1cccc(-c2ccccc2OC(F)(F)F)c1 | 8

Each compound was assayed against T1, Sodium channel protein type 9 subunit alpha (Homo sapiens, UniProt Q15858) (assay: Inhibition of human Nav1.7 at 10 uM by VIPR assay). Settings: not given.
Target sequence in this assay (Q15858 whole entry, looked up): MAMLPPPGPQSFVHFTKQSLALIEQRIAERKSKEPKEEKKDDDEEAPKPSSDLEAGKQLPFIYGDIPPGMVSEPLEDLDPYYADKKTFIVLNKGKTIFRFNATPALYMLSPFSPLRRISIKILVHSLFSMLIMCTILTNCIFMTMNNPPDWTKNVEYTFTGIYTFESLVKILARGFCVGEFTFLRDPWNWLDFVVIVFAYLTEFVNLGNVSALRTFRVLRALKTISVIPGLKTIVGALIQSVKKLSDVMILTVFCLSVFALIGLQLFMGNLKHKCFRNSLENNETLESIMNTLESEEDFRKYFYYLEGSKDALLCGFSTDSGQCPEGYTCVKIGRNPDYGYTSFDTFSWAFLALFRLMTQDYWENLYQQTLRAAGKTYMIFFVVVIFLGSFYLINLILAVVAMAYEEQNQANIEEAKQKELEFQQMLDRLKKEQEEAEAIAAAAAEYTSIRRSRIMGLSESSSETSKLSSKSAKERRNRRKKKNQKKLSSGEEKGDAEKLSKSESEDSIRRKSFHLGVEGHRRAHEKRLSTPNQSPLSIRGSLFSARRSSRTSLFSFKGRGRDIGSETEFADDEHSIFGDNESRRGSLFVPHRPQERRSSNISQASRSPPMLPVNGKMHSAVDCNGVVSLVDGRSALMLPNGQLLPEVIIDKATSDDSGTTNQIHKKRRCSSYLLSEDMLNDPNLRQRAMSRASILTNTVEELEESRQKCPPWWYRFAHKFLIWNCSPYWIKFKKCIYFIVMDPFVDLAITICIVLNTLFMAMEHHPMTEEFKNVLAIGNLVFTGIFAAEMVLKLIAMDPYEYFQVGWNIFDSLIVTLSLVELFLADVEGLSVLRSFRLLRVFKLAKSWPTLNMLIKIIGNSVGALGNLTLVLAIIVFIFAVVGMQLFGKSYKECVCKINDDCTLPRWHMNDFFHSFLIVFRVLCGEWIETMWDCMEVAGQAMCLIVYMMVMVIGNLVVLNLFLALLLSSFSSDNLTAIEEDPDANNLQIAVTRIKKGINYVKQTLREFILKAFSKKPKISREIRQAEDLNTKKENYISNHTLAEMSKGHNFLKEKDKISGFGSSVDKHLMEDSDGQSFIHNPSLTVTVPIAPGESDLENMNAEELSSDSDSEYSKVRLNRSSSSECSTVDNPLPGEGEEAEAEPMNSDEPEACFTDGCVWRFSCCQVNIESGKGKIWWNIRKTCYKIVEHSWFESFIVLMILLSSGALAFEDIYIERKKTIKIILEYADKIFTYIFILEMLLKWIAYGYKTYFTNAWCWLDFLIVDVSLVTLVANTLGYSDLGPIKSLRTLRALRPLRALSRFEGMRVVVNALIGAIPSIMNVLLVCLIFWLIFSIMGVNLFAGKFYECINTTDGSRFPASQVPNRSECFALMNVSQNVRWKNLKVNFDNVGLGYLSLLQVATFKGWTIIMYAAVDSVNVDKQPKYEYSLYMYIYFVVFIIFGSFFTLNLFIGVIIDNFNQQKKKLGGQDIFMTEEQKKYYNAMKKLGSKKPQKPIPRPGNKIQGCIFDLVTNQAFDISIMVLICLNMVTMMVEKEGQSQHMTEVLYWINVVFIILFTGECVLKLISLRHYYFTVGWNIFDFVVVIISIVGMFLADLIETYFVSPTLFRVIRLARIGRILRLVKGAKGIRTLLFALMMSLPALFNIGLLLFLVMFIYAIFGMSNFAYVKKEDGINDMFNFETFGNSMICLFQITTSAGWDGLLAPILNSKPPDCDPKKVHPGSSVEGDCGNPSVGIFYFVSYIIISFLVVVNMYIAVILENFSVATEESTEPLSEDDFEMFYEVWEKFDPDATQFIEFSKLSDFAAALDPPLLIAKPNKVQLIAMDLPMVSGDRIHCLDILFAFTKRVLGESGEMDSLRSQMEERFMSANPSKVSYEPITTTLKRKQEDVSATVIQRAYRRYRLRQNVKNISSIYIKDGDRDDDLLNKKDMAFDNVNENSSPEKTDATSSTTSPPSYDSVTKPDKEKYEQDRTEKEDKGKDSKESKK

Row | inhibition [%] | SMILES
14 | 1 | CCNC(=O)c1cc(C(=O)NCC)n(-c2cccc(-c3ccccc3OC(F)(F)F)c2)n1

What follows are compounds tested on Rattus norvegicus (assay: Antiallodynic activity in rat spinal nerve ligation model of neuropathic pain assessed as reversal of allodynia at 10 mg/kg, po after 2 hrs). Settings: not given.
Assay type: functional

Row | SMILES | Activity [%]
15 | NC(=O)c1cc(C(N)=O)n(-c2cccc(-c3cccc(OC(F)(F)F)c3OCC(F)(F)C(F)(F)F)c2)n1 | 6
16 | NC(=O)c1cc(C(N)=O)n(-c2cccc(-c3c(F)cccc3OC(F)(F)F)c2)n1 | 15
17 | NC(=O)c1cc(C(N)=O)n(-c2cccc(-c3cc(F)ccc3OCC(F)(F)C(F)(F)F)c2)n1 | 25
18 | NC(=O)c1cn(-c2cccc(-c3ccccc3OC(F)(F)F)c2)nc1C(N)=O | 18
19 | NC(=O)c1cc(C(N)=O)n(-c2cccc(-c3cc(C(F)(F)F)ccc3OC(F)(F)F)c2)n1 | 29
20 | NC(=O)c1cc(C(N)=O)n(-c2cccc(-c3cccc(OC(F)(F)F)c3F)c2)n1 | 28
21 | NC(=O)c1cc(C(N)=O)n(-c2cccc(-c3ccccc3OC(F)(F)F)c2)n1 | 35
22 | NC(=O)c1cc(C(N)=O)n(-c2cccc(-c3cccc(C(F)(F)F)c3OCC(F)(F)C(F)(F)F)c2)n1 | 22
23 | NC(=O)c1cc(C(N)=O)n(-c2cccc(-c3ccc(F)cc3OCC(F)(F)C(F)(F)F)c2)n1 | 28
24 | Cc1cc(C(N)=O)nn1-c1cccc(-c2ccccc2OC(F)(F)F)c1 | 33
25 | NC(=O)c1cc(C(N)=O)n(-c2cccc(-c3ccccc3C(F)(F)F)c2)n1 | 9
26 | NC(=O)c1cc(C(N)=O)n(-c2cccc(-c3cccc(Cl)c3Cl)c2)n1 | 15
27 | Cc1c(C(N)=O)c(C(N)=O)nn1-c1cccc(-c2ccccc2OC(F)(F)F)c1 | 16

Each compound was assayed against T1, Sodium channel protein type 9 subunit alpha (assay: Inhibition of human Nav1.7 by VIPR assay). Settings: not given.
Target sequence in this assay (Q15858 whole entry): as the sequence (Q15858 whole entry, looked up) above

Row | IC50 [nM] | Ki [nM] | SMILES
28 | 64 |  | NC(=O)c1cc(C(N)=O)n(-c2cccc(-c3cccc(OC(F)(F)F)c3OCC(F)(F)C(F)(F)F)c2)n1
29 | 106 |  | NC(=O)c1cc(C(N)=O)n(-c2cccc(-c3c(F)cccc3OC(F)(F)F)c2)n1
30 | 477 |  | NC(=O)c1cc(C(N)=O)n(-c2ccc(F)c(-c3ccccc3OC(F)(F)F)c2)n1
31 | 46 |  | NC(=O)c1cc(C(N)=O)n(-c2cccc(-c3cc(F)ccc3OCC(F)(F)C(F)(F)F)c2)n1
32 | 715 |  | NC(=O)c1cc(C(N)=O)n(-c2cccc(-c3c(C(F)(F)F)cccc3C(F)(F)F)c2)n1
33 | 49 |  | NC(=O)c1cn(-c2cccc(-c3ccccc3OC(F)(F)F)c2)nc1C(N)=O
34 | 29 |  | CCNC(=O)c1cc(C(N)=O)nn1-c1cccc(-c2ccccc2OC(F)(F)F)c1
35 | 10 |  | CCOC(=O)c1cc(C(N)=O)nn1-c1cccc(-c2ccccc2OC(F)(F)F)c1
36 | 325 |  | NC(=O)c1cc(C(N)=O)n(-c2cccc(-c3cc(C(F)(F)F)ccc3OC(F)(F)F)c2)n1
37 | 282 |  | NC(=O)c1cc(C(N)=O)n(-c2cccc(-c3cccc(OC(F)(F)F)c3F)c2)n1
38 | 132 |  | NC(=O)c1cc(C(N)=O)n(-c2cccc(-c3ccccc3OC(F)(F)F)c2)n1
39 | 147 |  | NC(=O)c1cc(C(N)=O)n(-c2cccc(-c3cccc(C(F)(F)F)c3OCC(F)(F)C(F)(F)F)c2)n1
40 |  | 230 | NC(=O)c1nc(-c2cccc(-c3ccccc3OC(F)(F)F)c2)cs1
41 | 115 |  | NC(=O)c1nn(-c2cccc(-c3ccccc3OC(F)(F)F)c2)c(C(N)=O)c1C(N)=O
42 | 106 |  | NC(=O)c1cc(C(N)=O)n(-c2cccc(-c3ccc(F)cc3OCC(F)(F)C(F)(F)F)c2)n1
43 |  | 340 | Cc1cc(C(N)=O)nn1-c1cccc(-c2ccc(C(F)(F)F)cc2C(F)(F)F)c1
44 | 155 |  | NC(=O)c1cc(C(N)=O)n(-c2cccc(-c3ccccc3C(F)(F)F)c2)n1
45 | 195 |  | NC(=O)c1cc(C(N)=O)n(-c2cccc(-c3cccc(Cl)c3Cl)c2)n1
46 | 185 |  | Cc1c(C(N)=O)c(C(N)=O)nn1-c1cccc(-c2ccccc2OC(F)(F)F)c1

What follows are compounds tested against hERG (KCNH2) (Homo sapiens, UniProt Q12809) (assay: Inhibition of MK-0499 binding to human ERG at 10 uM). Settings: probe MK-0499.
Sequence of hERG (KCNH2) (Q12809 whole entry): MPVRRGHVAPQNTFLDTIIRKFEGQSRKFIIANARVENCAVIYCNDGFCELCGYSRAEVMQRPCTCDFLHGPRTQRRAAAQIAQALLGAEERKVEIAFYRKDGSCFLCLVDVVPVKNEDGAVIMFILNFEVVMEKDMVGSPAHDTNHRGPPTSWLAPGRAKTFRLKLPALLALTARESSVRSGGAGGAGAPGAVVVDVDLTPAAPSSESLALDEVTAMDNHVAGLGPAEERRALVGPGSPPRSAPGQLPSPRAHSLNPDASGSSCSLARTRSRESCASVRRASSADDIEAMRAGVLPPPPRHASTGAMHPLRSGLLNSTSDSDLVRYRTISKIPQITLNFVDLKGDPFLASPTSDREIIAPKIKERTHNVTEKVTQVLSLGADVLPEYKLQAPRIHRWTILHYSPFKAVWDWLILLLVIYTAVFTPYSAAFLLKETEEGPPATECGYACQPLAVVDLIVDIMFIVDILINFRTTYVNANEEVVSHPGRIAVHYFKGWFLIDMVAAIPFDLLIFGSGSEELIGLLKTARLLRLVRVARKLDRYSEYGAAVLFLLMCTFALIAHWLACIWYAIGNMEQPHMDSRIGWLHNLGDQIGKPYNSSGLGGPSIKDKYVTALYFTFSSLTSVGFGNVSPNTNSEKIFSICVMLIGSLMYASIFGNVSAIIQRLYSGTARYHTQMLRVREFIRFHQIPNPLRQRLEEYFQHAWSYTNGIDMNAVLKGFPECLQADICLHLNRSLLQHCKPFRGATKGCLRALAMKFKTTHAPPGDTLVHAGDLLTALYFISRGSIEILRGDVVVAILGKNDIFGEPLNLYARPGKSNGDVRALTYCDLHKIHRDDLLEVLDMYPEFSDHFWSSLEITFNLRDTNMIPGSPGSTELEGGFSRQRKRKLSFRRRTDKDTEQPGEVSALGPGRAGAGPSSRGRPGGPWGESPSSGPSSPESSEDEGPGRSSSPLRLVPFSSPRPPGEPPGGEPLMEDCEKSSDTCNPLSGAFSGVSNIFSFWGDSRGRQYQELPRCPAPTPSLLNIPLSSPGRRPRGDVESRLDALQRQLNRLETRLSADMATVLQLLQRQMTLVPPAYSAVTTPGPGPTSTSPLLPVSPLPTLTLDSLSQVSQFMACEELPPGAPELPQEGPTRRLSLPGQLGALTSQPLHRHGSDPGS

Row | SMILES | inhibition at 10 µM [%]
47 | NC(=O)c1cn(-c2cccc(-c3ccccc3OC(F)(F)F)c2)nc1C(N)=O | 1
48 | CCNC(=O)c1cc(C(N)=O)nn1-c1cccc(-c2ccccc2OC(F)(F)F)c1 | 20
49 | CCNC(=O)c1cc(C(=O)NCC)n(-c2cccc(-c3ccccc3OC(F)(F)F)c2)n1 | 27
50 | CCOC(=O)c1cc(C(N)=O)nn1-c1cccc(-c2ccccc2OC(F)(F)F)c1 | 72
51 | NC(=O)c1cc(C(N)=O)n(-c2cccc(-c3ccccc3OC(F)(F)F)c2)n1 | 21
52 | NC(=O)c1nn(-c2cccc(-c3ccccc3OC(F)(F)F)c2)c(C(N)=O)c1C(N)=O | 49
53 | Cc1cc(C(N)=O)nn1-c1cccc(-c2ccccc2OC(F)(F)F)c1 | 69
54 | Cc1c(C(N)=O)c(C(N)=O)nn1-c1cccc(-c2ccccc2OC(F)(F)F)c1 | 15

These compounds were tested against Sodium channel protein type 10 subunit alpha (Homo sapiens, UniProt Q9Y5Y9) (assay: Inhibition of human Nav1.8 by VIPR assay). Settings: not given.
Sequence of Sodium channel protein type 10 subunit alpha (Q9Y5Y9 whole entry): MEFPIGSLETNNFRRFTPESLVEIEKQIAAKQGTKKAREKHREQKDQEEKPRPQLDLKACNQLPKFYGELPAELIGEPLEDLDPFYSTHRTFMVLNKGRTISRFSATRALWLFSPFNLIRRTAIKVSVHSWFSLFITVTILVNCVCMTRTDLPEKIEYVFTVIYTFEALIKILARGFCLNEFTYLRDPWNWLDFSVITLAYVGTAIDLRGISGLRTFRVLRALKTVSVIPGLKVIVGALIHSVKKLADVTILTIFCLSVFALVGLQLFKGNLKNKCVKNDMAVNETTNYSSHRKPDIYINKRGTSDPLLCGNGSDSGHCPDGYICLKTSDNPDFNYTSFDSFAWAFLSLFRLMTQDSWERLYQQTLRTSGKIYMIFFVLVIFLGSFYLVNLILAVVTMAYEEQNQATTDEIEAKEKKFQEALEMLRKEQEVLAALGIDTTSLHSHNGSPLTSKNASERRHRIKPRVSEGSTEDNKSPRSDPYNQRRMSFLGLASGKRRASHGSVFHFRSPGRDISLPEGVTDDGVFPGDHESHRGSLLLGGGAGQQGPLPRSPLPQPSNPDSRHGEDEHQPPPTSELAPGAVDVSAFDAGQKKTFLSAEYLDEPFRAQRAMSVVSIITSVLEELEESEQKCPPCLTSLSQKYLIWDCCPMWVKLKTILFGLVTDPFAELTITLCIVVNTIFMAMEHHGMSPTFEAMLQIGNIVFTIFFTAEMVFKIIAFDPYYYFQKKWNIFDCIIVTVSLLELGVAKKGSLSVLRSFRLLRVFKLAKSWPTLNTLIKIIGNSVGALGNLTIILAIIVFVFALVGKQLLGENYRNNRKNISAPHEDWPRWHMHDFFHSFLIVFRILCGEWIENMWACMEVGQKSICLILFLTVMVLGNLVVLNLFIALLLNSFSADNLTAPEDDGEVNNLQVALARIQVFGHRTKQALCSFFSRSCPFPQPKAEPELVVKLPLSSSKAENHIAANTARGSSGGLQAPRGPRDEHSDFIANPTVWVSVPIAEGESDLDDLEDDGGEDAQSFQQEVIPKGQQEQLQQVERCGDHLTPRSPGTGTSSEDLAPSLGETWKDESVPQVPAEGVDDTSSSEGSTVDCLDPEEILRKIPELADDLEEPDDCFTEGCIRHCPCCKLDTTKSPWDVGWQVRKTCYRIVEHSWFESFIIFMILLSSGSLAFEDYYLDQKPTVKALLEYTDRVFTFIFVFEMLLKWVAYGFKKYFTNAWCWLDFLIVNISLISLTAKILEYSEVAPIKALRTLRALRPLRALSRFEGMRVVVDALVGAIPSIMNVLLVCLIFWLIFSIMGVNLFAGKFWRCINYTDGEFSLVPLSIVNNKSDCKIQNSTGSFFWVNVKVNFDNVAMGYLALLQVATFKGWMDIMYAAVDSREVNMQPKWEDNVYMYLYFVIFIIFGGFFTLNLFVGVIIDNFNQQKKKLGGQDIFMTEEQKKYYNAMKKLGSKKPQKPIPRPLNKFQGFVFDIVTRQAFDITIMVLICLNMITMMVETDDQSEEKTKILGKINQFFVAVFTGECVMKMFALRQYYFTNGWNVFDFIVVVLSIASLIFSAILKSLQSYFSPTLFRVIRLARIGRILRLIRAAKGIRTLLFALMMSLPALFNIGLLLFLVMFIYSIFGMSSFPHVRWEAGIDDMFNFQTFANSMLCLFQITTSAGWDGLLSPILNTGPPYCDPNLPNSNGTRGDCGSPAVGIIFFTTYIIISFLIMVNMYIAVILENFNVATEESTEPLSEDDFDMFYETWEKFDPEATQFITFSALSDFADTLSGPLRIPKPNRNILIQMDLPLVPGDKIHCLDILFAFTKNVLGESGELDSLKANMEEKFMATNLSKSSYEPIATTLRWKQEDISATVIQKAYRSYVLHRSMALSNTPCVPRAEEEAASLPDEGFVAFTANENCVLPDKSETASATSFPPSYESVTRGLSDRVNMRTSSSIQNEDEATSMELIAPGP

Row | IC50 [nM] | SMILES
55 | 203 | NC(=O)c1cc(C(N)=O)n(-c2cccc(-c3cccc(OC(F)(F)F)c3OCC(F)(F)C(F)(F)F)c2)n1
56 | 802 | NC(=O)c1cc(C(N)=O)n(-c2cccc(-c3c(F)cccc3OC(F)(F)F)c2)n1
57 | 149 | NC(=O)c1cc(C(N)=O)n(-c2cccc(-c3cc(F)ccc3OCC(F)(F)C(F)(F)F)c2)n1
58 | 1180 | NC(=O)c1cc(C(N)=O)n(-c2cccc(-c3cc(C(F)(F)F)ccc3OC(F)(F)F)c2)n1
59 | 1510 | NC(=O)c1cc(C(N)=O)n(-c2cccc(-c3cccc(OC(F)(F)F)c3F)c2)n1
60 | 554 | NC(=O)c1cc(C(N)=O)n(-c2cccc(-c3ccccc3OC(F)(F)F)c2)n1
61 | 299 | NC(=O)c1cc(C(N)=O)n(-c2cccc(-c3cccc(C(F)(F)F)c3OCC(F)(F)C(F)(F)F)c2)n1
62 | 915 | NC(=O)c1cc(C(N)=O)n(-c2cccc(-c3ccccc3C(F)(F)F)c2)n1
